In patent US20230087342A1, “AZEPANE DERIVATIVE” (Nippon Chemiphar Co., Ltd., priority 2019, published 2023) one finds EC50 data, which are given here for ten compounds.

A word on the pEC50: it is the EC50 on a negative log10 scale, so that one unit is a factor of ten. Lower therefore signals a large EC50.

pEC50: −log10 of the molar value.

For this experiment, the target named is T1, human κ opioid receptors (Homo sapiens, UniProt P41145).
T1 construct: host or cells: CHO cells
As to the kind of experiment: Opioid receptor function test (Lance Ultra cAMP kit, agonist activity). The note with it: CHO cells expressing human κ opioid receptors, 10 μM forskolin, 30 minutes. It is filed as cell-based. The protocol:
Opioid Receptor Function Test
The function activity of the compound of the present invention on κ opioid receptors was examined.
Method: Using a Lance Ultra cAMP kit (Perkin Elmer), the examination was performed according to a predetermined method. In evaluation of agonist activity, CHO cells expressing human κ opioid receptors (Catalog No. CT6606, accession No. NM_000912) and a test compound were reacted in an assay buffer (1×HSS, 5 mM HEPES, pH 7.4, 0.5 mM IBMX (isobutylmethyixanthine), 0.1% SA) in the presence of 10 μM forskolin for 30 minutes. Subsequently, a cAMP detection reagent in the kit was added. One hour later, time-resolved fluorescence measurement was performed using an EnVision plate reader (Perkin Elmer). The evaluation of the test compound was performed in a concentration range of 10^−14 to 10^−7 M for the κ opioid receptor function test.

T1 sequence (P41145 whole entry): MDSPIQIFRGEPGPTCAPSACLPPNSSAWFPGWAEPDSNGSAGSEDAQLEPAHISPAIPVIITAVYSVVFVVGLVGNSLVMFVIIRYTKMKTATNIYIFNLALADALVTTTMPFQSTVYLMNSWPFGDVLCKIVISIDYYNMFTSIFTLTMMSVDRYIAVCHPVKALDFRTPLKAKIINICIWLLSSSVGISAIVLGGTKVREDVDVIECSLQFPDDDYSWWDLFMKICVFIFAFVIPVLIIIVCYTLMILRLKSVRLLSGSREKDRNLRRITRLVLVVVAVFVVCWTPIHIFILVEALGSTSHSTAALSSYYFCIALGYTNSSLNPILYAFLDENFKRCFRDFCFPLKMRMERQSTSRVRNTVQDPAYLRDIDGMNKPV

As for `Oc1ccc2c(c1)[C@@]13CCN(CCCn4cc(C(F)(F)F)cn4)CC[C@@]1(O)[C@@H](C2)N(CC1CC1)CC3` [Example 179, (5aS,6R,11bS)-14-(cyclopropylmethyl)-3-(3-(4-(trifluoromethyl)-1H-pyrazol-1-yl)propyl)-2,3,4,5,6,7-hexahydro-6,11b-(epiminoethano)naphtho[1,2-d]azepine-5a,10(1H)-diol], the pEC50 is 10.62.

For the compound `CC(C)c1cn(CC(=O)N2CC[C@]34CCN(CC5CC5)[C@H](Cc5ccc(O)cc53)[C@]4(O)CC2)nn1` [Example 165, 1-((5aS,6R,11bR)-14-(cyclopropylmethyl)-5a,10-dihydroxy-1,2,5,5a,6,7-hexahydro-6,11b-(epiminoethano)naphtho[1,2-d]azepin-3(4H)-yl)-2-(4-isopropyl-1H-1,2,3-triazol-1-yl)ethan-1-one], the pEC50 is 9.55. On to `NC(=O)c1ccc2c(c1)[C@@]13CCN(C(=O)Cc4n[nH]c5ccccc45)CC[C@@]1(O)[C@@H](C2)N(CC1CC1)CC3` [Example 265, (5aS,6R,11bR)-3-(2-(1H-indazol-3-yl)acetyl)-14-(cyclopropylmethyl)-5a-hydroxy-1,2,3,4,5,5a,6,7-octahydro-6,11b-(epiminoethano)naphtho[1,2-d]azepine-10-carboxamide], for which the pEC50 is 9.92. For `Cc1cnn(C2CC(N3CC[C@]45CCN(CC6CC6)[C@H](Cc6ccc(O)cc64)[C@]5(O)CC3)C2)c1` (single isomer, unassigned) [Example 227 (II)], the pEC50 was 9.80. Then `Oc1ccc2c(c1)[C@@]13CCN(CCc4cnccn4)CC[C@@]1(O)[C@@H](C2)N(CC1CC1)CC3` [Example 84, (5aS,6R,11bS)-14-(cyclopropylmethyl)-3-(2-(pyrazin-2-yl)ethyl)-2,3,4,5,6,7-hexahydro-6,11b-(epiminoethano)naphtho[1,2-d]azepine-5a,10(1H)-diol], with 9.33; and `Oc1ccc2c(c1)[C@@]13CCN(CCc4cn5ccccc5n4)CC[C@@]1(O)[C@@H](C2)N(CC1CC1)CC3` [Example 116, (5aS,6R,11bS)-14-(cyclopropylmethyl)-3-(2-(imidazo[1,2-a]pyridin-2-yl)ethyl)-2,3,4,5,6,7-hexahydro-6,11b-(epiminoethano)naphtho[1,2-d]azepine-5a,10(1H)-diol], with 10.68.

As to `CCc1cc(CC(=O)N2CC[C@]34CCN(CC5CC5)[C@H](Cc5ccc(O)cc53)[C@]4(O)CC2)no1` [Example 191, 1-((5aS,6R,11bR)-14-(cyclopropylmethyl)-5a,10-dihydroxy-1,2,5,5a,6,7-hexahydro-6,11b-(epiminoethano)naphtho[1,2-d]azepin-3(4H)-yl)-2-(5-ethylisoxazol-3-yl)ethan-1-one], the pEC50 is 9.32.

In turn, `Cc1cnn(C[C@H](CO)N2CC[C@]34CCN(CC5CC5)[C@H](Cc5ccc(O)cc53)[C@]4(O)CC2)c1` [Example 232, (5aS,6R,11bS)-14-(cyclopropylmethyl)-3-((R)-1-hydroxy-3-(4-methyl-1H-pyrazol-1-yl)propan-2-yl)-2,3,4,5,6,7-hexahydro-6,11b-(epiminoethano)naphtho[1,2-d]azepine-5a,10(1H)-diol] showed a pEC50 of 9.77. The same measure for `Cc1cnn(CCN2CC[C@]34CCN(CC5CC5)[C@H](Cc5ccc(OC(=O)C(C)(C)C)cc53)[C@]4(O)CC2)c1` [Example 238, (5aS,6R,11bS)-14-(cyclopropylmethyl)-5a-hydroxy-3-(2-(4-methyl-1H-pyrazol-1-yl)ethyl)-1,2,3,4,5,5a,6,7-octahydro-6,11b-(epiminoethano)naphtho[1,2-d]azepin-10-yl pivalate]: 9.35. In turn, `Oc1ccc2c(c1)[C@@]13CCN(CCc4nc5ccccc5s4)CC[C@@]1(O)[C@@H](C2)N(CC1CC1)CC3` [Example 128, (5aS,6R,11bS)-3-(2-(benzo[d]thiazol-2-yl)ethyl)-14-(cyclopropylmethyl)-2,3,4,5,6,7-hexahydro-6,11b-(epiminoethano)naphtho[1,2-d]azepine-5a,10(1H)-diol] had a pEC50 of 10.00.
